Assay results as given in paper PMC2905478 (Peptides, 2010).
Read-outs that look alike come from different tables or passages of the source. *1 amine or outer side, *2 acyl side, *3 side chain or, on linkers, in order; H or OH if unused. Where a SMILES comes first, the peptide text is derived from it. [ ]: non-standard residue; d: D form. X1 = O=C(C[C@@H](N[*:1])c1ccc(Cl)cc1)[*:2]; β3hPhg = O=C(C[C@@H](N[*:1])c1ccccc1)[*:2]; Nle = CCCC[C@H](N)C(=O)O

What was measured:
hBRS-3 [1] = biological target: T1, hBRS-3 (Homo sapiens, UniProt P32247); settings: binding; hBRS-3 containing cells (H1299, Balb; Tables 2 and 3)
hBRS-3 [2] = biological target: T1, hBRS-3; settings: for affinities from binding studies for the hBRS-3 receptor, range over 3 cell lines: 3 hBRS-3 cell lines (NC-N417, Balb, H1299)
hNMBR [3] = biological target: T2, hNMBR (Homo sapiens, UniProt P28336); settings: binding; hNMBR/H1299 and hNMBR/Balb cells
hBRS-3 [4] = biological target: T1, hBRS-3; settings: binding affinities
hGRPR [5] = biological target: T3, hGRPR (Homo sapiens, UniProt P30550); settings: binding, HuTu-80 cells, native hGRPR
hBRS-3 [6] = biological target: T1, hBRS-3; test: biochemical; settings: IC50 (nM) hBRS-3/N417, half-maximal inhibition of binding; 50 pM radioligand, 22 °C, 60 min
hBRS-3 [7] = biological target: T1, hBRS-3; settings: for agonist efficacy for [3H]IP generation (full/partial agonist): each of the hBRS-3 containing cells, concentrations up to 10,000 nM; for fold less potent than peptide #1 at activating PLC: range over three hBRS-3 containing cells
hNMBR [8] = biological target: T2, hNMBR; test: Stimulation of [3H]IP generation; settings: for fold less potent than peptide #1 at activating PLC: hNMBR containing H1299 and Balb cells
hGRPR [9] = biological target: T3, hGRPR; test: Stimulation of [3H]IP generation
hNMBR [10] = biological target: T2, hNMBR; test: Stimulation of [3H]IP generation
hNMBR [11] = biological target: T2, hNMBR; test: biochemical
hGRPR [12] = biological target: T3, hGRPR; test: Stimulation of [3H]IP generation; settings: for fold less potent than peptide #1 at activating PLC: hGRPR containing HuTu-80 and Balb cells
hNMBR [13] = biological target: T2, hNMBR; test: biochemical; settings: IC50 (nM) hNMBR/H1299, half-maximal inhibition of binding

T2 sequence (P28336 whole entry): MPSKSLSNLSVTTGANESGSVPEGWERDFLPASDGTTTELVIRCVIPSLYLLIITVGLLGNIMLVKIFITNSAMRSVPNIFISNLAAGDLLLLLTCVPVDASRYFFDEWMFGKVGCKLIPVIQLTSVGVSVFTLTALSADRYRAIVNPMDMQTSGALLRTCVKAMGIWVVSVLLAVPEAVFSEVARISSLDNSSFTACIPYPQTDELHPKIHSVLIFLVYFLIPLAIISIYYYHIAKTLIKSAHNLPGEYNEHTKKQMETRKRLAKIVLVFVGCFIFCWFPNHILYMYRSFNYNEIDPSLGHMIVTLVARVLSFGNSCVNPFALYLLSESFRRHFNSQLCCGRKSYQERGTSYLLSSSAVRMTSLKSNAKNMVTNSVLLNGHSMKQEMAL
T1 sequence (P32247 whole entry): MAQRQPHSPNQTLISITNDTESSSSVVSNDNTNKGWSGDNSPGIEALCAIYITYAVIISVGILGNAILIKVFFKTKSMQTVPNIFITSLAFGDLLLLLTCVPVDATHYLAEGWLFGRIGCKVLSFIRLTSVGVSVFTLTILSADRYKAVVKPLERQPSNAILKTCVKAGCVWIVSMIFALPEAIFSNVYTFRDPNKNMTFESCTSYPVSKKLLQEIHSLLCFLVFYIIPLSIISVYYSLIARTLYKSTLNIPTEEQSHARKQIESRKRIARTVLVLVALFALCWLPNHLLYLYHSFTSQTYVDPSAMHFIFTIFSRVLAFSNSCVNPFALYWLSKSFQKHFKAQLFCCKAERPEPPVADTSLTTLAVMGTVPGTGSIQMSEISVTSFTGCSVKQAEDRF
T3 sequence (P30550 whole entry): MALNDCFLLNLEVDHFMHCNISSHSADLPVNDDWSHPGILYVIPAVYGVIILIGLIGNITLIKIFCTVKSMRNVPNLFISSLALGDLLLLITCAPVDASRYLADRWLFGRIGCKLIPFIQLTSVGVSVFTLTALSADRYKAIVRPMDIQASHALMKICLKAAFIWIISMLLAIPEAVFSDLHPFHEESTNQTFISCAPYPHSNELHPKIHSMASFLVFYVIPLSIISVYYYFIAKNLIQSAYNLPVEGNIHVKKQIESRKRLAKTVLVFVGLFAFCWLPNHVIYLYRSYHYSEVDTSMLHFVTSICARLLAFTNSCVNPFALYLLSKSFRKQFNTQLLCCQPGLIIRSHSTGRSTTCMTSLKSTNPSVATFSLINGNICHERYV

Row | SMILES | fold lower affinity than peptide #1, range over hBRS-3 cell lines (hBRS-3 [1]) | affinities from binding studies for the hBRS-3 receptor, range over 3 cell lines (hBRS-3 [2]) | fold lower affinity than NMB (and peptide #1) (hNMBR [3]) | fold lower affinity than GRP or peptide #1 (hGRPR [5]) | agonist efficacy for [3H]IP generation (full/partial agonist) (hBRS-3 [7]) | fold less potent than peptide #1 at activating PLC (hBRS-3 [7]) | fold less potent than peptide #1 at activating PLC (hNMBR [8]) | fold less potent than peptide #1 at activating PLC (hGRPR [12]) | other results
1 | CCCC[C@H](NC(=O)[C@H](Cc1ccccc1)NC(=O)[C@H](Cc1c[nH]cn1)NC(=O)C[C@@H](NC(=O)[C@@H](NC(=O)[C@H](C)NC(=O)[C@H](Cc1c[nH]c2ccccc12)NC(=O)[C@H](CCC(N)=O)NC(=O)[C@H](N)Cc1ccc(O)cc1)C(C)C)c1ccccc1)C(N)=O [Peptide 2, [DTyr^6, (R)-Apa^11, Phe^13, Nle^14]Bn(6-14)] (H-[dY]QWAV[β3hPhg]HF[Nle]-NH2) | 4–49 fold | nM affinities | 200–1100 fold | 475 fold | none functioning as a partial agonist | 4–14 fold | > 250 fold | 10–25 fold | selectivity for hBRS-3 in NCI-N417 cell over hGRPR natively expressed in Hutu cells (hBRS-3 [2]; binding affinities): 13 fold; selectivity for hBRS-3 natively expressed in NCI-N417 cells than hNMBR expressed in NCI-H1299 cells (hBRS-3 [2]; binding affinities): 15 fold; fold lower affinity than the universal ligand, peptide #1 (hBRS-3 [2]; binding, native hBRS-3 in NCI-N417 cells): 3 fold; selectivity for hBRS-3 over hGRPR in the different cells based on binding affinities (hBRS-3 [2]; range over cells): 13–32 fold; selectivity for hBRS-3 over the hNMBR based on binding affinities (hBRS-3 [2]; range over cells): 15 to 46 fold; selectivity for hBRS-3 expressed in Balb cells over hGRPR in the same cells (hBRS-3 [4]): 32 fold; selectivity for hBRS-3 expressed in Balb cells than hNMBR in the same cells (hBRS-3 [4]): 47 fold; IC50 (hBRS-3 [6]): 4.3 ± 0.2 nM; selectivity (PLC potency) for hBRS-3 cells over hGRPR containing cells (hBRS-3 [7]; Tables 2-4): 10 to 26 fold; EC50 (hNMBR [8]): 0.195 ± 0.011 µM; EC50 (hGRPR [9]): 0.058 ± 0.002 µM; EC50 (hNMBR [10]): 0.038 ± 0.0012 µM; IC50 (hNMBR [11]): 0.158 ± 0.008 µM; EC50 (hGRPR [12]): 0.318 ± 0.025 µM; IC50 (hNMBR [13]): 66.1 ± 3.4 nM
2 | CCCC[C@H](NC(=O)[C@H](Cc1ccccc1)NC(=O)[C@H](Cc1c[nH]cn1)NC(=O)C[C@@H](NC(=O)[C@@H](NC(=O)[C@H](C)NC(=O)[C@H](Cc1c[nH]c2ccccc12)NC(=O)[C@H](CCC(N)=O)NC(=O)[C@H](N)Cc1ccc(O)cc1)C(C)C)c1ccc(Cl)cc1)C(N)=O [Peptide 3, [DTyr^6, (R)-Apa^11-4Cl, Phe^13, Nle^14]Bn(6-14)] (H-[dY]QWAV[X1]HF[Nle]-NH2) | 2.5–17 fold | nM affinities | 745–5900 fold | 750 fold | none functioning as a partial agonist | 3.3–10 fold | > 1000 fold | 123–270 fold | –
